The values below come from publication PMC13237142, “Proteome-wide quantification of inositol pyrophosphate-protein interactions” (Nature Communications, 2026).

The target of one series is T1, PMVK (Homo sapiens, UniProt Q15126).
T1 construct: 6xHis (N, cleaved yes); V5 (N, cleaved yes); made in house; host or cells: E. coli BL21 (DE3)
T1 sequence (Q15126 1-192): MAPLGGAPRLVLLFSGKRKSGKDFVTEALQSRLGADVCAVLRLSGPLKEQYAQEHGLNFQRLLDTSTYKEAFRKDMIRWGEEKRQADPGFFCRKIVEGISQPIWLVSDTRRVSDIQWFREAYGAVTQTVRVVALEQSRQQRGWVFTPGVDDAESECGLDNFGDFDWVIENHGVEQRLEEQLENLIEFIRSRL
Description: Isothermal titration calorimetry with recombinant PMVK. Format: binding. To be noted: ITC, 25 °C, 50 μM protein, 500 μM ligand, buffer pH 7.4 with 1 mM MgCl2; triplicate. In general terms: In ITC the heat of successive injections is recorded.

In series [1] the test system is proteins of HEK293T cell lysates (cytosolic/nuclear, EDTA/Mg2+). Description: Proteome-wide KDapp, all four lysate preparations together. Conditions: Mg^2+ ions present; read-out: KD^app values of the top 50 proteins. Format: binding, human.
The target in a further series is T2, PPIP5K2 (Homo sapiens, UniProt O43314).
T2 construct: endogenous in cells; host or cells: HEK293T cytosolic fraction (Mg2+)
T2 sequence (O43314 1-1243): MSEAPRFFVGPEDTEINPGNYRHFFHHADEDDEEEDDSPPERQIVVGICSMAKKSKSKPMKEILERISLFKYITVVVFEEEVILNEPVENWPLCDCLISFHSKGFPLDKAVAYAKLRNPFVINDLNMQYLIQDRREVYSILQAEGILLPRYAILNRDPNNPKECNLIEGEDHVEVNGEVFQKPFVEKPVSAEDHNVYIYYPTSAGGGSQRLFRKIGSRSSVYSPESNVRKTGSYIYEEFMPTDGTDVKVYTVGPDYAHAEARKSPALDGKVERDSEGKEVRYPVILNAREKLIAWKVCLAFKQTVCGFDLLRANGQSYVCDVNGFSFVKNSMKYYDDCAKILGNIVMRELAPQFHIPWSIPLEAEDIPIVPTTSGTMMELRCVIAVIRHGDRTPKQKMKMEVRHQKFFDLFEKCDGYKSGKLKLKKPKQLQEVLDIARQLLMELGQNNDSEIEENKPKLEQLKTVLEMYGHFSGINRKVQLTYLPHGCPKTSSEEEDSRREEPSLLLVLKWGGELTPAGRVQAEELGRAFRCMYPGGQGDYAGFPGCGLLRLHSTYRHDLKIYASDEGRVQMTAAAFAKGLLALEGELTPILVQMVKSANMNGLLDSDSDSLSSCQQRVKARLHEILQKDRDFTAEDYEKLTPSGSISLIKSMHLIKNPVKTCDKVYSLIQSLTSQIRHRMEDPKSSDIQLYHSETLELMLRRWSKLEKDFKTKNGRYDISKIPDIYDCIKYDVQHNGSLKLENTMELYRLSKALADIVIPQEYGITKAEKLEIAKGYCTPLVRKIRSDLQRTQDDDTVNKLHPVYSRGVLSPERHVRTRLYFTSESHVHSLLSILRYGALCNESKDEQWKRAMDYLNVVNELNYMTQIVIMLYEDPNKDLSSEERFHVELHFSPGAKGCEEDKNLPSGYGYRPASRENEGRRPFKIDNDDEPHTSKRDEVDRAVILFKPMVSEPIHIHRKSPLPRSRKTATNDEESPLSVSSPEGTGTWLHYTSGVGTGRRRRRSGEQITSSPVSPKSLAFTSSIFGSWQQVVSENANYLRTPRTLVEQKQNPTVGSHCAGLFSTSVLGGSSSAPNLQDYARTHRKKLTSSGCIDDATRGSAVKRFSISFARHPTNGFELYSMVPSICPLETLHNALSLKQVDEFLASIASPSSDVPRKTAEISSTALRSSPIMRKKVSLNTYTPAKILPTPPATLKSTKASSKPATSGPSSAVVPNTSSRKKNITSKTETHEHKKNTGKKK
Description: KDapp by affinity enrichment/TMT-MS. It counts as binding. To be noted: in the presence of Mg^2+ ions, cytosolic dataset.

For a further series, the target named is T3, MMTAG2 (Homo sapiens, UniProt Q9BU76).
T3 construct: endogenous in cells; host or cells: HEK293T nuclear fraction (Mg2+)
Nature of the series: KDapp by affinity enrichment/TMT-MS. To be noted: Mg^2+nucl HEK293T lysate; read-out: KD^app. It counts as binding.

A further series has as its target T4, POLR2I (Homo sapiens, UniProt P36954).
T4 construct: endogenous in cells; host or cells: HEK293T lysate fraction
Nature of the series: KDapp by affinity enrichment/TMT-MS. Conditions: binding curve, Supplementary Fig. 9.

Another series has as its target T5, PDAP1 (Homo sapiens, UniProt Q13442).
T5 construct: endogenous in cells; host or cells: HEK293T cytosolic fraction
T5 sequence (Q13442 1-181): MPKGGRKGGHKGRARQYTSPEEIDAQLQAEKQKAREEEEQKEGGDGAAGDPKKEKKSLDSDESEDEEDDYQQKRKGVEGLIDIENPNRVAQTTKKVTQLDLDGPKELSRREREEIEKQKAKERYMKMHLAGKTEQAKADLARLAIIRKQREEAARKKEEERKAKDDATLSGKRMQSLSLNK
Nature of the series: KDapp by affinity enrichment/TMT-MS. Conditions: Mg^2+(cyto) HEK293T lysate; read-out: KD^app. It counts as binding.

For the next series, the system named is XPR1. Conditions: compared with InsP6 and 5PP-InsP5; cited from earlier work.
The conditions of series [2]: in the presence of Mg^2+ ions; cited from earlier work.

T3 sequence (Q9BU76 whole entry): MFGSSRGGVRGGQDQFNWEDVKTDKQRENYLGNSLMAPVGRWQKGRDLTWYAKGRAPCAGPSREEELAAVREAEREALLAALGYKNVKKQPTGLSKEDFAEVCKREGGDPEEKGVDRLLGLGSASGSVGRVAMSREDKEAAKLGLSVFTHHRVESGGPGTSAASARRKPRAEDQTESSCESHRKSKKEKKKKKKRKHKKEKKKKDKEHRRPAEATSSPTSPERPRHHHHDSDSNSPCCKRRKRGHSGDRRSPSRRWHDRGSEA
Description for MMTAG2: (§1) Cells were lysed using two different lysis buffers (containing either 1 mM EDTA or containing 1 mM Mg^2+), and the lysates were separated into nuclear and cytosolic fractions to provide deeper proteome coverage (Supplementary Fig. 8). […] Following quick washing steps, the retained proteins were eluted with an excess of the corresponding free ligand. The samples were digested with trypsin, followed by 11-plex TMT isobaric labeling, subsequent sample pooling, and LC-MS/MS analysis. To ensure robustness of the datasets, the experiments were performed in biological triplicates, and only proteins fully quantified in at least two replicates were further analyzed. […] In addition, model validity was assessed by an F-test comparing the Hill-like fit to a null model, and only proteins with statistically significant fits (p ≤ 0.05) were considered. Furthermore, a cutoff of log2 fold-change ≥ 1 between the endpoints was applied (Supplementary Data 1).
(§2) Cells were washed twice with ice-cold 0.9 mM NaCl in H2O (10 mL), carefully scraped off, added to protein low-binding microcentrifuge tubes, and ice-cold PBS (1 mL) was added. The cells were pelleted for 2 min, 250 g at 4 °C, and the supernatant was removed. The pellet was washed twice with ice-cold PBS (1 mL), the supernatant was removed, and the pellet was kept on ice. […]
Description for PDAP1: as §1, §2
Description for PMVK: Protein stocks were subjected to buffer exchange using final buffer conditions: 25 mM HEPES, pH 7.4, 150 mM KCl, 1 mM MgCl2, 40 mM NaCl, 0.5 mM TCEP (ITC buffer). The exact protein concentration was determined by BCA assay and adjusted to 50 μM. […] ITC experiments were carried out at 25 °C in a MicroCal PEAQ-ITC calorimeter (Malvern Panalytical GmbH, Kassel, Germany), with ca. 50 μM protein in the cell and 500 μM ligand in the syringe. InsPs were titrated into the solution in nineteen 2 μL-steps. Spacing between injections was 150 s. The corresponding instrument software (MicroCal PEAQ-ITC Analysis) was used for baseline correction, peak integration, data fitting and determination of binding parameters. All experiments were carried out in triplicate.
Description for PPIP5K2: as §1, §2

On to `O=P(O)(O)O[C@H]1[C@H](OP(=O)(O)O)[C@@H](OP(=O)(O)O)[C@H](OP(=O)(O)O)[C@@H](OP(=O)(O)O)[C@H]1OP(=O)(O)O` [InsP6, inositol hexakisphosphate], for which, on PMVK, the Kd was 4 ± 0.3 µM.
As to `O=C(CCCC[C@@H]1SC[C@@H]2NC(=O)N[C@@H]21)NCCOCCOCCOCCOCCOP(=O)(O)O[C@@H]1[C@@H](OP(=O)(O)O)[C@H](OP(=O)(O)CP(=O)(O)O)[C@@H](OP(=O)(O)O)[C@H](OP(=O)(O)CP(=O)(O)O)[C@@H]1OP(=O)(O)O` [b-1,5(PCP)2-InsP4], the values for the Kd (in series [1]; at MMTAG2; on PDAP1) were < 1 µM, 1.9 µM and 0.6 µM, respectively. The “binding to PPIP5K2 (binding curves)” value on PPIP5K2 is “tight binding”. The “binding to POLR2I” value on POLR2I is given as “strong binding”.
Take `O=P(O)(O)O[C@@H]1[C@@H](OP(=O)(O)O)[C@H](OP(=O)(O)OP(=O)(O)O)[C@@H](OP(=O)(O)O)[C@H](OP(=O)(O)OP(=O)(O)O)[C@@H]1OP(=O)(O)O` [1,5(PP)2-InsP4, bis-1,5-diphosphoinositol tetrakisphosphate]: in the series with XPR1, the “in vitro binding affinity to XPR1” value is “highest”. Further, the “fraction adopting the flipped conformation” value in series [2] is ~30%.
Turning to `O=P(O)(O)O[C@H]1[C@@H](OP(=O)(O)O)[C@H](OP(=O)(O)O)[C@@H](OP(=O)(O)OP(=O)(O)O)[C@H](OP(=O)(O)O)[C@H]1OP(=O)(O)O` [5PP-InsP5, 5-diphosphoinositol pentakisphosphate], on PMVK, the Kd turned out to be 9.5 ± 1 µM.
